≈ marks a conversion by molar mass, not a printed value.
Assays:
Assay type in all cases: functional
Pseudomonas aeruginosa [1] = test: Antibacterial activity against Pseudomonas aeruginosa NCIM-2036 after 24 hr by broth dilution method; settings: NCIM-2036, 24 h
Pseudomonas aeruginosa [2] = test: Antibacterial activity against Pseudomonas aeruginosa NCIM-2036 after 24 hr by agar diffusion assay
Escherichia coli [3] = test: Antibacterial activity against Escherichia coli NCIM-2065 after 24 hr by broth dilution method; settings: NCIM-2065, 24 h
Alcaligenes faecalis [4] = test: Antibacterial activity against Alcaligenes faecalis NCIM-2262 after 24 hr by broth dilution method; settings: NCIM-2262, 24 h
Klebsiella aerogenes [5] = test: Antibacterial activity against Enterobacter aerogenes NCIM 2036 after 24 hr by broth dilution method; settings: NCIM-2036, 24 h
Staphylococcus aureus [6] = test: Antibacterial activity against Staphylococcus aureus NCIM-2079 after 24 hr by agar diffusion assay
Bacillus cereus [7] = test: Antibacterial activity against Bacillus cereus NCIM-2155 after 24 hr by agar diffusion assay
Klebsiella aerogenes [8] = test: Antibacterial activity against Enterobacter aerogenes NCIM 2036 after 24 hr by agar diffusion assay
Proteus vulgaris [9] = test: Antibacterial activity against Proteus vulgaris NCIM-2027 after 24 hr by broth dilution method; settings: NCIM-2027, 24 h
Proteus vulgaris [10] = test: Antibacterial activity against Proteus vulgaris NCIM-2027 after 24 hr by agar diffusion assay
Bacillus subtilis [11] = test: Antibacterial activity against Bacillus subtilis NCIM-2063 after 24 hr by agar diffusion assay
Staphylococcus aureus [12] = test: Antibacterial activity against Staphylococcus aureus NCIM-2079 after 24 hr by broth dilution method; settings: NCIM-2079, 24 h
Bacillus cereus [13] = test: Antibacterial activity against Bacillus cereus NCIM-2155 after 24 hr by broth dilution method; settings: NCIM-2155, 24 h
Alcaligenes faecalis [14] = test: Antibacterial activity against Alcaligenes faecalis NCIM-2262 after 24 hr by agar diffusion assay
Bacillus subtilis [15] = test: Antibacterial activity against Bacillus subtilis NCIM-2063 after 24 hr by broth dilution method; settings: NCIM-2063, 24 h
Escherichia coli [16] = test: Antibacterial activity against Escherichia coli NCIM-2065 after 24 hr by agar diffusion assay

Row | Compound | MIC (Pseudomonas aeruginosa [1]) [µg/mL] | diameter of the inhibition zone (DIZ) (Pseudomonas aeruginosa [2]) [mm] | MIC (Escherichia coli [3]) [µg/mL] | MIC (Alcaligenes faecalis [4]) [µg/mL] | MIC (Klebsiella aerogenes [5]) [µg/mL] | diameter of the inhibition zone (DIZ) (Staphylococcus aureus [6]) [mm] | diameter of the inhibition zone (DIZ) (Bacillus cereus [7]) [mm] | diameter of the inhibition zone (DIZ) (Klebsiella aerogenes [8]) [mm] | MIC (Proteus vulgaris [9]) [µg/mL] | diameter of the inhibition zone (DIZ) (Proteus vulgaris [10]) [mm] | diameter of the inhibition zone (DIZ) (Bacillus subtilis [11]) [mm] | MIC (Staphylococcus aureus [12]) [µg/mL] | MIC (Bacillus cereus [13]) [µg/mL] | diameter of the inhibition zone (DIZ) (Alcaligenes faecalis [14]) [mm] | MIC (Bacillus subtilis [15]) [µg/mL] | diameter of the inhibition zone (DIZ) (Escherichia coli [16]) [mm]
1 | CC1(C)CC[C@]2(C(=O)O)[C@H](O)[C@H](O)[C@]3(C)C(=CC[C@@H]4[C@@]5(C)CC[C@H](O)C(C)(C)[C@@H]5CC[C@]43C)[C@@H]2C1 [ENTAGENIC ACID] | 150 (≈ 307 µM) | 15 | 250 (≈ 512 µM) | 150 (≈ 307 µM) | 300 (≈ 614 µM) | 17.5 | 22 | 6.5 | 250 (≈ 512 µM) | 13.5 | 18 | 100 (≈ 205 µM) | 100 (≈ 205 µM) | 15 | 100 (≈ 205 µM) | 13
2 | CN[C@@H]1[C@H](O[C@H]2[C@H](O[C@H]3[C@H](O)[C@@H](O)[C@H](N=C(N)N)[C@@H](O)[C@@H]3N=C(N)N)O[C@@H](C)[C@]2(O)C=O)O[C@@H](CO)[C@H](O)[C@H]1O [STREPTOMYCIN] | – | 21.15 | – | – | – | 19.41 | 20.53 | 19.38 | – | 24.36 | 22.33 | – | – | 22.37 | – | 18.42

From ChEMBL document CHEMBL3045735, “Antibacterial and molecular docking studies of entagenic acid, a bioactive principle from seed kernel of Entada pursaetha DC” (2012)
